Patent US10544112B2, “Identification of ebsulfur analogues with broad-spectrum antifungal activity” (priority 2017, dated 2020)
Converted amounts (≈) assume the structure as drawn.

Key:
[1] = tested on: C. albicans ATCC MYA-1003(R) (strain G); experiment: microbe, parasite or virus in culture; format: cell-based, Candida albicans; details: strain G; compounds 1-4n and AmB; 48 h, RPMI 1640
Method: (§1) Fungal MIC determination experiments were performed using untreated 96-well plates (Corning). Cells were counted either by using a hemocytometer (Hausser Scientific, Horsham, Pa., USA) or by measuring optical density at attenuance of 600 nm (OD600) by using a Genesys 20 spectrophotometer (Thermo Scientific, Waltham, Mass., USA). Spectrophotometric and colorimetric measurements in 96-well plates were performed using a SpectraMax M5 spectrometer (Molecular Devices, Sunnyvale, Calif., USA).
(§2) Yeast strains Candida albicans ATCC 10231 (strain A), C. albicans ATCC 64124 (strain B), and C. albicans ATCC MYA-2876(S) (strain C) were kindly provided by Dr. Jon Y. Takemoto (Utah State University, Logan, UT, USA). C. albicans ATCC MYA-90819(R) (strain D), C. albicans ATCC MYA-2310(S) (strain E), C. albicans ATCC 1237(R) (strain F), C. albicans ATCC MYA-1003(R) (strain G), Candida glabrata ATCC 2001 (strain H), Candida krusei ATCC 6258 (strain I), and Candida parapsilosis ATCC 22019 (strain J) were obtained from the American Type Culture Collection (ATCC, Manassas, Va., USA). The (S) and (R) indicate that ATCC reports these strains to be susceptible (S) and resistant (R) to ITC and FLC. The filamentous fungal strains Aspergillus flavus ATCC MYA-3631 (strain K), and Aspergillus terreus ATCC MYA-3633 (strain M) were also obtained from the American Type Culture Collection (ATCC, Manassas, Va., USA). Aspergillus nidulans ATCC 38163 (strain L) was kindly provided by Dr. Jon S. Thorson (University of Kentucky, Lexington, Ky., USA), respectively. Yeast strains were cultured at 35° C. Filamentous fungal strains were cultured at 25° C. and the spores were harvested. All fungal strains were cultured in RPMI 1640 medium (catalog # R6504, Sigma-Aldrich Chemical Co., St. Louis, Mo.) buffered to pH 7.0 with 0.165 M morpholinepropanesulfonic acid (MOPS) buffer (Sigma-Aldrich Chemical Co.).
(§3) The MIC values against fungal strains were determined based on a previously published protocol. MIC values for ebsulfur (2a) analogues against fungal cells were evaluated in 96-well plates as described in the CLSI document M27-A3 with minor modifications. […] Therefore, potato dextrose broth (PDB) was used to grow the yeast inocula of all strains tested, which were later diluted in RPMI 1640 medium to perform determination of MIC values. […] The tested compounds (10 mg/mL) were diluted to the working stocks (500 μg/mL) by addition of DMSO. Two-fold serial dilution of the working stocks was prepared by addition of RPMI 1640 medium (100 μL) and cell suspension (100 μL) to 96-well microtiter plate to achieve final drug and inoculum concentrations ranging from 12.5-0.02 μg/mL and 5×10^3 CFU/mL, respectively. Plates were incubated for 48 h at 35° C. […]

[2] = tested on: C. albicans ATCC 64124 (strain B); experiment: microbe, parasite or virus in culture; format: cell-based, Candida albicans; details: strain B; compounds 1-4n and AmB; 48 h, RPMI 1640
Method: as §1, §2, §3

[3] = tested on: C. albicans ATCC 90819(R) (strain D); experiment: microbe, parasite or virus in culture; format: cell-based, Candida albicans; details: strain D; compounds 1-4n and AmB; 48 h, RPMI 1640
Method: as §1, §2, §3

[4] = tested on: C. albicans ATCC MYA-1237(R) (strain F); experiment: microbe, parasite or virus in culture; format: cell-based, Candida albicans; details: strain F; compounds 1-4n and AmB; 48 h, RPMI 1640
Method: as §1, §2, §3

[5] = tested on: Aspergillus terreus ATCC MYA-3633 (strain M); experiment: Antifungal MIC determination, filamentous fungi spores; format: cell-based; details: strain M; all compounds; spores
Method: as §1, §2
(§4) The MIC values against fungal strains were determined based on a previously published protocol. MIC values for ebsulfur (2a) analogues against fungal cells were evaluated in 96-well plates as described in the CLSI document M27-A3 with minor modifications. […] Therefore, potato dextrose broth (PDB) was used to grow the yeast inocula of all strains tested, which were later diluted in RPMI 1640 medium to perform determination of MIC values. […] The tested compounds (10 mg/mL) were diluted to the working stocks (500 μg/mL) by addition of DMSO. Two-fold serial dilution of the working stocks was prepared by addition of RPMI 1640 medium (100 μL) and cell suspension (100 μL) to 96-well microtiter plate to achieve final drug and inoculum concentrations ranging from 12.5-0.02 μg/mL and 5×10^3 CFU/mL, respectively. Plates were incubated for 48 h at 35° C.
(§5) MIC assays for the spore-forming filamentous fungi, such as strain A. flavus ATCC MYA-3631 (strain K), were performed in a similar fashion. The filamentous fungal strains were first cultured at 25° C. on potato dextrose agar (PDA) plates for 3-5 days or until confluent. Spores were collected by washing the surface of the agar plates with dd H2O (5 mL) and then isolated the spores by gravity filtration (the spores are H2O soluble). […] Researchers working with spores should wear a facemask to prevent spore inhalation.

[6] = tested on: Aspergillus nidulans ATCC 38163 (strain L); experiment: as above; format: cell-based; details: strain L; spores
Method: as §1, §2, §4, §5

[7] = tested on: Aspergillus flavus ATCC MYA-3631 (strain K); experiment: as above; format: cell-based; details: all compounds
Method: as §1, §2, §4, §5

[8] = tested on: Candida parapsilosis ATCC 22019 (strain J); experiment: Antifungal MIC determination (CLSI M27-A3, 96-well); format: cell-based; details: strain J; compounds 1-4n and AmB; 48 h, RPMI 1640
Method: as §1, §2, §3

[9] = tested on: Candida krusei ATCC 6258 (strain I); experiment: as above; format: cell-based; details: strain I; compounds 1-4n and AmB; 48 h, RPMI 1640
Method: as §1, §2, §3

[10] = tested on: Candida glabrata ATCC 2001 (strain H); experiment: as above; format: cell-based; details: strain H; compounds 1-4n and AmB; 48 h, RPMI 1640
Method: as §1, §2, §3

[11] = tested on: Candida albicans ATCC 10231 (strain A); experiment: as above; format: cell-based; details: strain A; compounds 1-4n and AmB; 48 h, RPMI 1640
Method: as §1, §2, §3

[12] = tested on: C. albicans ATCC MYA-2876(S) (strain C); experiment: as above; format: cell-based, Candida albicans; details: strain C; compounds 1-4n and AmB; 48 h, RPMI 1640
Method: as §1, §2, §3

[13] = tested on: C. albicans ATCC MYA-2310(S) (strain E); experiment: as above; format: cell-based, Candida albicans; details: strain E; compounds 1-4n and AmB; 48 h, RPMI 1640
Method: as §1, §2, §3

Row | SMILES | MIC-0 [1] | MIC-0 [2] | MIC-0 [3] | MIC-0 [4] | MIC-0 [5] | MIC-0 [6] | MIC-0 [7] | MIC-0 [8] | MIC-0 [9] | MIC-0 [10] | MIC-0 [11] | MIC-0 [12] | MIC-0 [13]
1 | CC(C)c1cccc(-n2sc3ccccc3c2=O)c1 [Compound 2h] | 3.13 µg/mL (≈ 11.6 µM) | 3.13 µg/mL (≈ 11.6 µM) | 3.13 µg/mL (≈ 11.6 µM) | 3.13 µg/mL (≈ 11.6 µM) | 12.5 µg/mL (≈ 46.4 µM) | 12.5 µg/mL (≈ 46.4 µM) | 6.25 µg/mL (≈ 23.2 µM) | 3.13 µg/mL (≈ 11.6 µM) | 3.13 µg/mL (≈ 11.6 µM) | 3.13 µg/mL (≈ 11.6 µM) | 3.13 µg/mL (≈ 11.6 µM) | 3.13 µg/mL (≈ 11.6 µM) | 3.13 µg/mL (≈ 11.6 µM)
2 | O=c1c2ccccc2sn1C1CCCCCC1 [Compound 3m] | 3.13 µg/mL (≈ 12.7 µM) | 1.56 µg/mL (≈ 6.31 µM) | 1.56 µg/mL (≈ 6.31 µM) | 1.56 µg/mL (≈ 6.31 µM) | 0.20 µg/mL (≈ 0.809 µM) | 0.20 µg/mL (≈ 0.809 µM) | 0.10 µg/mL (≈ 0.404 µM) | 3.13 µg/mL (≈ 12.7 µM) | 0.39 µg/mL (≈ 1.58 µM) | 3.13 µg/mL (≈ 12.7 µM) | 1.56 µg/mL (≈ 6.31 µM) | 3.13 µg/mL (≈ 12.7 µM) | 3.13 µg/mL (≈ 12.7 µM)
3 | O=c1c2ccccc2sn1-c1cc(Br)cc(Br)c1 [Compound 2i] | 6.25 µg/mL (≈ 16.2 µM) | 6.25 µg/mL (≈ 16.2 µM) | 6.25 µg/mL (≈ 16.2 µM) | 3.13 µg/mL (≈ 8.13 µM) | 12.5 µg/mL (≈ 32.5 µM) | 3.13 µg/mL (≈ 8.13 µM) | 12.5 µg/mL (≈ 32.5 µM) | 6.25 µg/mL (≈ 16.2 µM) | 6.25 µg/mL (≈ 16.2 µM) | 6.25 µg/mL (≈ 16.2 µM) | 3.13 µg/mL (≈ 8.13 µM) | 6.25 µg/mL (≈ 16.2 µM) | 6.25 µg/mL (≈ 16.2 µM)
4 | CC(C)Cn1sc2ccccc2c1=O [Compound 3e] | 1.56 µg/mL (≈ 7.53 µM) | 1.56 µg/mL (≈ 7.53 µM) | 0.78 µg/mL (≈ 3.76 µM) | 0.78 µg/mL (≈ 3.76 µM) | 0.10 µg/mL (≈ 0.482 µM) | 0.02 µg/mL (≈ 0.0965 µM) | 0.20 µg/mL (≈ 0.965 µM) | 0.78 µg/mL (≈ 3.76 µM) | 0.39 µg/mL (≈ 1.88 µM) | 1.56 µg/mL (≈ 7.53 µM) | 0.78 µg/mL (≈ 3.76 µM) | 0.78 µg/mL (≈ 3.76 µM) | 0.78 µg/mL (≈ 3.76 µM)
5 | O=c1c2ccccc2sn1-c1ccccn1 [Compound 2m] | 6.25 µg/mL (≈ 27.4 µM) | 6.25 µg/mL (≈ 27.4 µM) | 6.25 µg/mL (≈ 27.4 µM) | 6.25 µg/mL (≈ 27.4 µM) | 12.5 µg/mL (≈ 54.8 µM) | 12.5 µg/mL (≈ 54.8 µM) | 12.5 µg/mL (≈ 54.8 µM) | 12.5 µg/mL (≈ 54.8 µM) | 6.25 µg/mL (≈ 27.4 µM) | 12.5 µg/mL (≈ 54.8 µM) | 6.25 µg/mL (≈ 27.4 µM) | 12.5 µg/mL (≈ 54.8 µM) | 6.25 µg/mL (≈ 27.4 µM)
